Results: patent publication US7531195B2, “Schisandrin B preparation” (priority 2005, dated 2009)
Marks after values point to notes of the source that are not given here.

Legend:
H9c2 cells = assay: Xanthine/xanthine oxidase-induced cytotoxicity (LDH leakage) in H9c2 cells; type: cell-based, rat; details: 6.25 μM
Method: H9c2 cells, a permanent cell line derived from cardiac myoblasts of rat embryo, have early been characterized as a suitable model of myocardial cells [Hescheler et al. 1991]. H9c2 cells were cultured as monolayers in Dulbecco's modified Eagle's medium (GIBCO BRL) supplemented with 10% (v/v) fetal bovine serum. The medium contained glucose (4.5 g/L) and glutamine (4.5 mM), supplemented with NaHCO3 (17 mM), penicillin (100 IU/ml), and streptomycin (100 μg/ml). Cells were grown under an atmosphere of 5% CO2 in air at 37° C. The medium was replaced by fresh medium every 2 or 3 days. A stock of cells was grown in a 75 cm culture flask and split before confluence at a subcultivation ratio of 1:10. Cells used for experiments were seeded at a density of 3.75×10^4 cells/well on a 12-well culture plate, and the cells were grown for 24 h to about 80% confluence prior to drug treatment.
Cultured H9c2 cells were treated with (−) Schisandrin B, (+) Schisandrin B or (±) Schisandrin B (dissolved in DMSO) at 6.25 μM (0.2% DMSO final concentration) for increasing periods of time. Control cells were given the vehicle (i.e. DMSO) only. Immediately following the drug or vehicle pretreatment, the cells were challenged with a mixture of xanthine (X) (0.1 mM) and xanthine oxidase (XO) (0.4 U/ml) for 4 h. The control cells were treated with the medium only. After the X/XO challenge, the medium was taken for the measurement of LDH activity, a biochemical index of cellular injury.

Myocardial Mitochondria [1] = assay: Myocardial mitochondrial ATP generation capacity, old male and female rats; type: in vivo, rat; details: liposome-encapsulated in drinking water, 10 mg/kg daily, 35 days
Method: (§1) Aged male and female rats (˜12 months old) were administered with liposome-encapsulated (−) Schisandrin B in drinking water for 35 days, with the daily dose estimated to be 10 mg/kg.
(§2) Male/Female adult Sprague-Dawley rats (˜12 months old) were maintained under a 12-h dark/light cycle at about 22° C. and allowed food and water ad libitum. Animals were randomly divided into groups, with at least 5 animals in each. In the pretreatment groups, rats were treated with liposome-encapsulated (−) Schisandrin B in drinking water for 35 days, with the estimated daily dose of 10 mg/kg. Control animals received empty liposomes-containing drinking water. Twenty-four hours following the last dosing, hearts were isolated from control or drug-pretreated rats and then subjected to Langendorff perfusion as described below.
(§3) Myocardial tissue samples were rinsed with ice-cold isotonic buffer (50 mM Tris, 0.32 M sucrose, 1 mM Na2EDTA, 0.2 mg/ml soybean trypsin inhibitor, 0.2 mg/ml bacitracine, 0.16 mg/ml benzamidine). Tissue homogenates were prepared by homogenizing 0.8 g of myocardial tissue in 8 ml ice-cold isotonic buffer and the homogenates were used for the preparation of mitochondrial fractions by differential centrifugation, as described in Chiu and Ko (2004). The mitochondrial pellets were resuspended in 1.5 ml of isotonic buffer containing 150 μl of 2 mg/ml soybean trypsin inhibitor and constituted the mitochondrial fractions.
Myocardial mitochondrial ATP generation capacity was measured by incubating 200 μl of nucleus-free tissue homogenate with 200 μl of substrate solution (containing 100 mM glutamate and 34 mM malate) and 20 μl ADP (2.3 mM) for 10 min at 37° C., and the ATP level were measured using an assay kit from Sigma Chemical Co. (St. Louis, Mo., USA). LDH activity was spectrophotometrically measured as described (Yim and Ko 1999).

Myocardial Mitochondria [2] = assay: Myocardial mitochondrial glutathione antioxidant status, old male and female rats; type: in vivo, rat; details: liposome-encapsulated in drinking water, 10 mg/kg daily, 35 days
Method: as §1, §2, §3
Aliquots (500 μl) of mitochondrial fractions were taken for measuring mitochondrial GSH level by HPLC methods, using GSH as standards, respectively, as described (Chiu et al 2002). Aliquots (400 μl) of mitochondrial fractions were mixed with 933 μl Triton X-100 solution (0.3%, v/v, in isotonic buffer) and sonicated for 2 min on ice. The mixtures were then subjected to measurements of mitochondrial glutathione reductase (GRD), Se-glutathione peroxidase (GPX) and glutathione S-transferases (GST) activities by spectrophotometric methods, as described in Chiu et al. (2002).

[3] = test system: Isolated-Perfused Rat Heart; assay: Myocardial ischemia-reperfusion injury (LDH leakage), isolated-perfused heart of old rats; type: in vivo; details: liposome-encapsulated, 10 mg/kg daily, 35 days
Method: as §1, §2
The heart was excised quickly and immediately immersed in ice-cold and heparinized (50 unit/ml) saline. The aorta was cannulated and then transferred to a warm and moistured chamber of the perfusion apparatus. The heart was retrogradely perfused according to Langendorff method as described (Yim and Ko 1999).
After an initial 30-min of perfusion for equilibration, the isolated heart was subjected to a 40-min period of ‘no-flow’ global ischemia followed by 20 min of reperfusion. Coronary effluent was collected in 1-min fractions at increasing time intervals during the course of equilibration and reperfusion. The fractions were immediately put on ice until assay for lactate dehydrogenase (LDH) activity. The extent of LDH leakage during the reperfusion period, an indirect index of myocardial injury, was estimated by computing the area under the curve of the graph plotting the percent LDH activity (with respect to the mean pre-ischemic value measured during the equilibration period) against the reperfusion time (1-20 min), as described (Yim and Ko 1999). Immediately after the I-R procedure, heart ventricular tissue samples were obtained for biochemical analysis.

[4] = X/XO challenge, 16 h post-dosing

## COc1cc2c(c(OC)c1OC)-c1c(cc3c(c1OC)OCO3)CC(C)C(C)C2 (single isomer, unassigned; (-)) [(−) Sch B, (−) Schisandrin B]
H9c2 cells; post-dosing
  time of maximum extent of protection against X/XO-induced cell injury (LDH leakage): 16 h
H9c2 cells; X/XO challenge, 0 h post-dosing (unpretreated control)
  LDH Leakage: 34.8 ± 1.13 U/L
H9c2 cells; X/XO challenge, 4 h post-dosing
  LDH Leakage: 26.0 ± 0.92 U/L
H9c2 cells; X/XO challenge, 8 h post-dosing
  LDH Leakage: 22.0 ± 0.63 U/L
H9c2 cells; [4]
  LDH Leakage: 14.2 ± 0.35 U/L
  LDH Leakage, percent protection vs unpretreated control (0 h): (78%)
H9c2 cells; X/XO challenge, 24 h post-dosing
  LDH Leakage: 17.5 ± 0.85 U/L
H9c2 cells; X/XO challenge, 48 h post-dosing
  LDH Leakage: 26.3 ± 0.41 U/L
Myocardial Mitochondria [1]; old female rats (~12 months)
  ATP generation: 4.43 ± 0.10^b μmol/min/mg protein
Myocardial Mitochondria [1]; old female rats
  ATP Generation, percent increase vs untreated control: (48%)
Myocardial Mitochondria [1]; old male rats (~12 months)
  ATP generation: 3.75 ± 0.06 μmol/min/mg protein
Myocardial Mitochondria [1]; old male rats
  ATP Generation, percent increase vs untreated control: (11%)
Myocardial Mitochondria [2]; old female rats (~12 months)
  GPX: 44.6 ± 4.29 mU/mg Protein
  GRD: 5.65 ± 0.65 mU/mg protein
  GSH: 6.80 ± 0.28^b nmol/mg protein
  GST: 14.0 ± 0.45^b mU/mg protein
Myocardial Mitochondria [2]; old female rats
  GRD, percent increase vs untreated control: (13%)
  GSH, percent increase vs untreated control: (31%)
Myocardial Mitochondria [2]; old male rats (~12 months)
  GPX: 52.2 ± 0.72^a mU/mg Protein
  GRD: 3.72 ± 0.29^a mU/mg protein
  GSH: 4.43 ± 0.09^a nmol/mg protein
  GST: 17.5 ± 0.76 mU/mg protein
Myocardial Mitochondria [2]; old male rats
  GPX, percent increase vs untreated control: (15%)
  GRD, percent increase vs untreated control: (39%)
  GSH, percent increase vs untreated control: (265%)
[3]; I-R, old female
  LDH Leakage: 4534 ± 86.5^b AU
  LDH Leakage, percent protection vs unpretreated control: (56%)
[3]; I-R, old male
  LDH Leakage: 2426 ± 219^a AU
  LDH Leakage, percent protection vs unpretreated control: (62%)
[3]; NON-I-R, old female
  LDH Leakage: 611 ± 49.7 AU
[3]; NON-I-R, old male
  LDH Leakage: 570 ± 66.8 AU
